# Reference: patent US6713280B1, “Enhancement of peptide cellular uptake” (Thomas Jefferson University, priority 1999, dated 2004)
# Residues, ends and D or L forms follow the SMILES beside them. *: point of attachment. Decanoyl = CCCCCCCCCC(=O)*
# What was measured:
# [1] = tested on: HL-60 cells transfected with Bcl-2 to overexpress Bcl-2; experiment: DNA fragmentation apoptosis assay; format: cell-based, human; details: 50 μM, 2 hours, Bcl-2-transfected HL-60 cells, FIG. 6
# GST-Bcl-2 protein = GST-Bcl-2 protein (Homo sapiens, UniProt P10415); experiment: Fluorescence polarization competition binding assay of decyl-SEQ ID NO:56 to GST-Bcl-2
# Method: The binding equation proposed by Weinhold et al., J. Am. Chem. Soc. 114:9270-9275, 1992, was used to derive the dissociation constant KD of an inhibitor from petition inhibition curve, [formula]
# The Ec50 for the Bcl-2 binding of decyl-SEQ ID NO:56 was 0.13 μM, indicating strong binding.
# The binding of the peptide conjugate decyl-SEQ ID NO:56 to the Bcl-2 protein was assayed by the following competition assay. […] The following micromolar concentrations of decyl-K1285 were then incubated with the mixture for 30 minutes at 37° C. (0.005, 0.01, 0.02, 0.04 0.08 0.16 and 0.32).
# [2] = tested on: HL-60 cell line (parent line); details: 50 μM, parent HL-60 line; cited from earlier work
# [3] = tested on: Bcl-2-transfected HL-60 line; details: 50 μM (same concentration); cited from earlier work
# Bcl-2 protein = Bcl-2 protein (Homo sapiens, UniProt P10415); experiment: Fluorescence polarization competition binding against Flu-SEQ ID NO:30 (BH3 peptides); details: FIG. 3; for inhibition of Bcl-2 binding of Flu-SEQ ID NO:30: competition curve; for relative competition to Flu-SEQ ID NO:30 binding: comparison among BH3 peptides
# Sequence of Bcl-2 protein (P10415 whole entry, the tested form may be a part): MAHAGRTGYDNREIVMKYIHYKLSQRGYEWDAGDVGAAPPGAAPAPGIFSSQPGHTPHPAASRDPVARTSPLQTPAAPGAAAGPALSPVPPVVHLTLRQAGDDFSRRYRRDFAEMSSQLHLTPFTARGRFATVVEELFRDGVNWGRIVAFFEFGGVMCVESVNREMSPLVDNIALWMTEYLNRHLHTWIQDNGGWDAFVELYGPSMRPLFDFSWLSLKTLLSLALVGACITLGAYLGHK
# Sequence of GST-Bcl-2 protein (P10415 1-205 limits assumed): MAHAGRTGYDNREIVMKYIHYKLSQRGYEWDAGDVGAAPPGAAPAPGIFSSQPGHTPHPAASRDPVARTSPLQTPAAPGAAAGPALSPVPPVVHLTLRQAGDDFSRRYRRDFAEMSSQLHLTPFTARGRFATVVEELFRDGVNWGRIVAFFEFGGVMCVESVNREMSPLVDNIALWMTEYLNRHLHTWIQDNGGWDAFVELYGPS
Compound,DNA fragmentation (marker of apoptosis) [1],inhibition of Bcl-2 binding of Flu-SEQ ID NO:30 (Bcl-2 protein),other results
"CCCCCCCCCC(=O)O [decanoic acid, reference compound]",observed in the decyl-SEQ ID NO:56-treated cells only,,
CCCCCCCCCC(=O)N[C@@H](CCCCN)C(=O)N[C@@H](CC(N)=O)C(=O)N[C@@H](CC(C)C)C(=O)N[C@@H](Cc1c[nH]c2ccccc12)C(=O)N[C@@H](C)C(=O)N[C@@H](C)C(=O)N[C@@H](CCC(N)=O)C(=O)N[C@@H](CCCNC(=N)N)C(=O)N[C@@H](Cc1ccc(O)cc1)C(=O)NCC(=O)N[C@@H](CCCNC(=N)N)C(=O)N[C@@H](CCC(=O)O)C(=O)N[C@@H](CC(C)C)C(=O)N[C@@H](CCCNC(=N)N)C(=O)N[C@@H](CCCNC(=N)N)C(=O)N[C@@H](CCSC)C(=O)N[C@@H](CO)C(=O)N[C@@H](CC(=O)O)C(=O)N[C@@H](CCC(=O)O)C(=O)N[C@@H](Cc1ccccc1)C(=O)N[C@@H](CCC(=O)O)C(=O)NCC(=O)N[C@@H](CO)C(=O)N[C@@H](Cc1ccccc1)C(=O)N[C@@H](CCCCN)C(=O)NCC(=O)N[C@@H](CC(C)C)C(=O)O [decyl-SEQ ID NO:56] (Decanoyl-KNLWAAQRYGRELRRMSDEFEGSFKGL-OH; C-terminus assumed),DNA fragmentation was observed,,EC50 (GST-Bcl-2 protein): 130 nM
COc1cc([C@@H]2c3cc4c(cc3[C@@H](O[C@@H]3O[C@@H]5CO[C@@H](C)O[C@H]5[C@H](O)[C@H]3O)[C@H]3COC(=O)[C@H]23)OCO4)cc(OC)c1O [etoposide],,,sensitivity of cells to the drug [2]: sensitive; sensitivity of cells to the drug [3]: resistant
"GQVGRQMIIGDDINR (GQVGRQAAIIGDDINR) [SEQ ID NO:58, reference compound]",,no significant effect,
KKLSECLKRIGDELDS [SEQ ID NO:32],,clear dose-dependent inhibition,relative competition to Flu-SEQ ID NO:30 binding (Bcl-2 protein): weaker activity
KNLWAAQRYGRELRRMSDEFEGSFKGL [SEQ ID NO:56],observed in the decyl-SEQ ID NO:56-treated cells only,,
NLWAAQRYGRELRRMSDEFEGSFKGL [SEQ ID NO:1],,clear dose-dependent inhibition,relative competition to Flu-SEQ ID NO:30 binding (Bcl-2 protein): strongest competition
